Measurements published in PubChem BioAssay (NCI).
Several values for one entry are separate records, joined by “and”; a condition that tells them apart may be missing. Equal values may be shown once.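 Cultured in 96-well plates, cells were exposed to test compound for 48 hours across five concentrations. Here, GI50 denotes the concentration required for 50% inhibition of growth. TGI is the concentration that stops growth completely.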

Key:
Experiment in all cases: NCI-60 cell line screen, 48 h
SF-268 CNS = system: SF-268 CNS
A498 renal = system: A498 renal
IGROV1 ovarian = system: IGROV1 ovarian
SF-295 CNS = system: SF-295 CNS
ACHN renal = system: ACHN renal
NCI-H460 lung = system: NCI-H460 lung
CAKI-1 renal = system: CAKI-1 renal
HCT-116 colon = system: HCT-116 colon
OVCAR-5 ovarian = system: OVCAR-5 ovarian
SK-MEL-28 melanoma = system: SK-MEL-28 melanoma

Compound | GI50 (SF-268 CNS) | TGI (SF-268 CNS) | GI50 (A498 renal) | TGI (A498 renal) | GI50 (IGROV1 ovarian) | TGI (IGROV1 ovarian) | GI50 (SF-295 CNS) | TGI (SF-295 CNS) | GI50 (ACHN renal) | TGI (ACHN renal) | GI50 (NCI-H460 lung) | TGI (NCI-H460 lung) | GI50 (CAKI-1 renal) | TGI (CAKI-1 renal) | GI50 (HCT-116 colon) | TGI (HCT-116 colon) | GI50 (OVCAR-5 ovarian) | TGI (OVCAR-5 ovarian) | GI50 (SK-MEL-28 melanoma) | TGI (SK-MEL-28 melanoma)
Cn1c(=O)c(Oc2ccc(F)cc2F)cc2cnc(NC3CCC(O)CC3)nc21 (stereo not drawn) | > 25 µM | > 25 µM | 5.89 µM | > 25 µM | > 25 µM | > 25 µM | > 25 µM | > 25 µM | > 25 µM | > 25 µM | > 25 µM | > 25 µM | > 25 µM | > 25 µM | > 25 µM | > 25 µM | > 25 µM | > 25 µM | > 25 µM | > 25 µM
CCOC(=O)C1=C(O)c2c(OC)ccc(OC)c2C(=O)C1=O | – | > 100 µM | – | > 100 µM | – | > 100 µM | – | > 100 µM | – | > 100 µM | – | > 100 µM | – | > 100 µM | – | > 100 µM | – | > 100 µM | – | > 100 µM
Nc1ccc(N)c2c1C(=O)c1cccc([N+](=O)[O-])c1C2=O | 5.07 µM | > 89.4 µM | 0.125 µM | 1.03 µM | 3.92 µM | > 100 µM | 0.776 µM | > 100 µM | 1.93 µM | > 100 µM | 0.206 µM | 1.27 µM | 0.549 µM | 4.07 µM | 2.73 µM | > 48.2 µM | 8.19 µM | > 100 µM | 11.5 µM | > 100 µM
CC(C)(CCc1nc2ccccc2[nH]1)C(=O)O | – | > 100 µM | – | > 100 µM | – | > 100 µM | – | > 100 µM | – | > 100 µM | – | > 100 µM | – | > 100 µM | – | > 100 µM | – | > 100 µM | – | > 100 µM
CC(=O)OCC1OC(OC(C)=O)C(NC#N)C(OC(C)=O)C1OC(C)=O (stereo not drawn) | – | > 100 µM | – | > 100 µM | – | > 100 µM | – | > 100 µM | – | > 100 µM | – | > 100 µM | – | > 100 µM | – | > 100 µM | – | > 100 µM | – | > 100 µM
COc1cccc(OC)c1/C=N\N1C(=O)c2ccccc2C1=O | – | > 100 µM | – | > 100 µM | – | > 100 µM | – | > 100 µM | – | > 100 µM | – | > 100 µM | – | > 100 µM | – | 87.6 µM | – | > 100 µM | – | > 100 µM
Cc1c(N)nc(C2CC(=O)N2CC(N)C(N)=O)nc1C(=O)NC(C(=O)NC(C)C(O)C(C)C(=O)NC(C(=O)NCCc1nc(-c2nc(C(=O)NCCNCC(C)O)cs2)cs1)C(C)O)C(OC1OC(CO)C(O)C(O)C1OC1OC(CO)C(O)C(OC(N)=O)C1O)c1cnc[nH]1 (stereo not drawn) | 1.69 µM | 32.6 µM and > 23.2 µM | – | > 46.6 µM | 13.4 µM | 50 µM and > 100 µM | 0.46 µM | 12.1 µM and 15.7 µM | 0.135 µM | 3.85 µM and 1.2 µM | 0.208 µM | 50 µM and 13.6 µM | 0.0234 µM | – | 6.97 µM | 50 µM and 24.3 µM | 9.82 µM | 50 µM and 57.4 µM | > 50 µM | > 100 µM
COc1cccc2c(Nc3ccc(C(=O)NCCN4CCNCC4)cc3)cc(-c3ccccc3)nc12 | 50.1 µM | > 100 µM | > 100 µM | > 100 µM | 32.1 µM | > 100 µM | 33.1 µM | > 100 µM | 18.8 µM | 40.8 µM | 35.1 µM | > 100 µM | > 100 µM | > 100 µM | 30.9 µM | > 100 µM | > 100 µM | > 100 µM | 19 µM | 64.7 µM
O=C(Nc1cccc(C(F)(F)F)c1)Nc1cc(S(=O)(=O)NC2CC2)ccc1-c1ccsc1 | 5.95 µM | 21.3 µM | 2.45 µM | 7.31 µM | 7.18 µM | 25.4 µM | 3.16 µM | 11.8 µM | 1.83 µM | 3.61 µM | 3.4 µM | 11.6 µM | 4.47 µM | 18.6 µM | 3.51 µM | 13.4 µM | 5.96 µM | 20.2 µM | 5.1 µM | 18.5 µM
COc1ccc(Cl)cc1Nc1nc(C(F)(F)F)ccc1C(=O)N/N=C/c1ccc(Cl)cc1 | 1.96 µM | 27.9 µM | 18.2 µM | > 100 µM | 11 µM | 79.1 µM | 2.09 µM | 12.1 µM | 6.4 µM | 66.2 µM | 1.82 µM | > 100 µM | 5.37 µM | 29.7 µM | 3.39 µM | 19.9 µM | 6.48 µM | > 100 µM | 74 µM | > 100 µM
CN1OC(CO)CC12C1CC3CC(C1)CC2C3 (stereo not drawn) | – | > 100 µM | – | > 100 µM | – | > 100 µM | – | > 100 µM | – | > 100 µM | – | > 100 µM | – | > 100 µM | – | > 100 µM | – | > 100 µM | – | > 100 µM
COc1cc(-c2nn(-c3cccc(NC(=O)c4cccc(C(F)(F)F)c4)c3)cc2-c2ccncc2)ccc1Cl | 2.13 µM | > 50 µM | 0.687 µM | 2.78 µM | 1.83 µM | > 50 µM | 1.02 µM | 3 µM | 1.89 µM | > 50 µM | 1.45 µM | 9.27 µM | 2.01 µM | > 50 µM | 1.67 µM | > 50 µM | 4.01 µM | > 50 µM | 2.49 µM | > 50 µM
